Results taken from patent US12508275B2, “Neomycin based compounds, and pharmaceutical use thereof” (UNIVERSITÉ COTE D'AZUR, priority 2019, dated 2025).

What was measured:
NESTIN expression in GB5 = experiment: NESTIN expression by immunofluorescence in GB5; type: cell-based, human; details: GB5, seven days
Experimental: (§1) FIG. 2: Compounds 9a-b and 18a-b effect on stemness marker expression, clonal expansion and mitosis in GB5 cells. (A) NESTIN expression was assessed by immunofluorescence in GB5 treated with increasing amount of Compounds 9a-b and 18a. The number of NESTIN positive cells was counted for each treatment and express as percentage of the control (100%). The results are the meaning of at least two separate experiments. […] (C) Clonal expansion analysis was performed with GB5 cells as described in the material and method section. Two and three weeks later, the number of spheroids is counted and reported as percentage of the initial number of cells in the well. The results are the meaning of a minimum of two separate experiments. (D) The number of mitosis in the culture was determined by the detection of the number of cells positive for histone H3 phosphorylated on ser-10 (H3-ser10). H3-ser10 expression was assessed by immunofluorescence in GB5 treated with increasing amount of Compounds 9a-b and 18a. The number of positive cells was counted for each treatment and express as percentage of the control (100%). The results are the meaning of at least two separate experiments.
(§2) III—Immunofluorescence assay: TG6 and GB5 were seeded at 2000 cells/well in 24 wells plate in NS34+ alone or containing 5, 7.5, 10, 12.5, 15, 20 and 25 uM of Compounds 9a-b and 18a-b. Cultures were incubated 4 days and the cells were fixed with 4% paraformaldehyde for 10 min at room temperature then washed with PBS. Cells were then incubated with ammonium chloride at 20 mM 5 min at room temperature and washed 5 times with PBS. Blocking and hybridization were realized in PBS containing 10% FCS and 0.1% Triton X100. Anti-Nestin and anti-H3Phospho serine 10 antibodies were incubated 2 hours at room temperature then washed with PBS. Fluorescence coupled secondary antibodies and Hoechst 33342 nuclei counterstaining reagent were hybridized one hour at room temperature. Cells were mounted with anti-fading agent then imaged, counted and quantified using fluorescent microscopy (TiE Nikon) and NiS software (Nikon).
Patient derived GSC (GB5) have been treated during seven days, with growing concentrations of compounds that have been capable of inducing changes of GSC morphology. To assess the consequence on stemness maintenance, we observed, by immunofluorescence, the expression of stemness and progenitor cells such as the NESTIN protein. […] The strongest effect has been obtained with Compounds 9a treatment (IC50=10 uM).

GB5 cells = experiment: Mitosis: cells positive for histone H3 phosphorylated on ser-10, GB5; type: cell-based, human; details: GB5, H3-ser10 positive cells
Experimental: as §1, §2
It was further investigated the effects of selected compounds on GSC clonal expansion as well as their capacity of mitosis (FIGS. 2B and C). Compounds 9a-b and 18a treatment altered GSC clonal expansion and mitosis. The most efficient inhibition of clonal expansion was provided by Compound 9a treatment (IC50<10 uM) while both Compounds 9a-b were the most efficient for mitosis inhibition (IC50<10 uM) (FIGS. 2C and D).

GB5 = experiment: XTT toxicity assay on GSC (GB5); type: cell-based
Experimental: FIG. 4: Determination of compound toxicity on GSC and normal human cells. (A) GB5 were incubated with growing concentration of Compounds 9a-b and 18a. (B) human normal neural stem cell (NNSC), human normal kidney cells (NHEK), human normal hepatocytes (HEPRG) and (C) human endothelial cells (HUVEC) were treated with growing concentration of Compound 9a. 7 days later, the cells were subjected to an XTT assays as described in the method section. The results are the meaning of at least two separate experiments. Cell death was confirmed by trypan blue staining (not shown).
II—XTT assay: TG6 and GB5 were seeded at 2000 cells/well in 96 wells plate in NS34+ alone or containing 10, 20, 25, 50 and 100 uM of Compounds 9a-b and 18a-b. Cultures were incubated 4 days and the cell proliferation was evaluated as indicated by the manufacturer.
V—Toxicity tests: NNSC, GB5, TG6, HEK293, and HepaRG, HUVEC were seeded at 2000 cells/well in 96 wells plate in their respective culture mediums alone or containing growing concentration from 10 to 500 uM of Compounds 9a-b. Cultures were incubated 4 days and the cellular toxicity has been evaluated by XTT assays. Cell viability has been also assessed by counting living and dead cells with trypan blue staining.
XTT assays allows, through cell metabolism measurement, to determine a cytotoxic/cytostatic effects. Compounds 9a-b and 18a were tested for their eventual toxicity by XTT assays as described in the material and method section. At the working concentrations 10 to 25 uM, the compounds are not toxic for GSC (FIG. 4A). […] Compound 9a toxicity was further tested on normal neural stem cells (NNSC), human kidney (NHEK), human hepatocytes (HEPRG) and human endothelial cells (HUVEC). The compound is not toxic on NNSC, NHEK, HEPRG and HUVEC cells when used between 10 to 50 uM. At 100 uM and above, Compound 9a was toxic (FIG. 4).

With `NCCCCNCCCNC(=O)c1csc(-c2csc(CCNC(=O)CCc3cn(CC4OC(OC5C(O)C(N)CC(N)C5OC5OC(CN)C(O)C(O)C5N)C(O)C4OC4OC(CN)C(O)C(O)C4N)nn3)n2)n1` (stereo not drawn) [Compound 9a, N-(3-((4-Aminobutyl)amino)propyl)-2′-(2-(3-(1-methyl-1H-1,2,3-triazol-4-yl)propanamido)ethyl)-[2,4′-bithiazole]-4-carboxamide-neomycin] the NESTIN expression (NESTIN expression in GB5; growing concentrations) was “drop in NESTIN expression”, the IC50 (NESTIN expression in GB5; Homo sapiens, 168 h) was 10 µM and the GSC mitosis (GB5 cells) was “altered”. The IC50 (GB5 cells; Homo sapiens, read-out: mitosis inhibition IC50) was < 10 µM, the “toxicity for GSC (XTT)” value (GB5; GB5, 50 uM and higher) was “relative toxicity” and the “toxicity for GSC (XTT)” value (GB5; GB5, 10 to 25 uM) was “not toxic”.
